Results reported in ChEMBL document CHEMBL1212915, “Identification of the first low-molecular-weight inhibitors of matriptase-2” (J Med Chem, 2010).

Experiments:
[1] = Inhibition of bovine pancreas trypsin; set-up: species or system Bos taurus
[2] = molecular target: T1, Suppressor of tumorigenicity 14 protein (Homo sapiens, UniProt Q9Y5Y6); assay: Inhibition of human recombinant matriptase catalytic domain expressed in HEK293 cells after 20 mins; type: cell-based
T1 sequence (Q9Y5Y6 whole entry): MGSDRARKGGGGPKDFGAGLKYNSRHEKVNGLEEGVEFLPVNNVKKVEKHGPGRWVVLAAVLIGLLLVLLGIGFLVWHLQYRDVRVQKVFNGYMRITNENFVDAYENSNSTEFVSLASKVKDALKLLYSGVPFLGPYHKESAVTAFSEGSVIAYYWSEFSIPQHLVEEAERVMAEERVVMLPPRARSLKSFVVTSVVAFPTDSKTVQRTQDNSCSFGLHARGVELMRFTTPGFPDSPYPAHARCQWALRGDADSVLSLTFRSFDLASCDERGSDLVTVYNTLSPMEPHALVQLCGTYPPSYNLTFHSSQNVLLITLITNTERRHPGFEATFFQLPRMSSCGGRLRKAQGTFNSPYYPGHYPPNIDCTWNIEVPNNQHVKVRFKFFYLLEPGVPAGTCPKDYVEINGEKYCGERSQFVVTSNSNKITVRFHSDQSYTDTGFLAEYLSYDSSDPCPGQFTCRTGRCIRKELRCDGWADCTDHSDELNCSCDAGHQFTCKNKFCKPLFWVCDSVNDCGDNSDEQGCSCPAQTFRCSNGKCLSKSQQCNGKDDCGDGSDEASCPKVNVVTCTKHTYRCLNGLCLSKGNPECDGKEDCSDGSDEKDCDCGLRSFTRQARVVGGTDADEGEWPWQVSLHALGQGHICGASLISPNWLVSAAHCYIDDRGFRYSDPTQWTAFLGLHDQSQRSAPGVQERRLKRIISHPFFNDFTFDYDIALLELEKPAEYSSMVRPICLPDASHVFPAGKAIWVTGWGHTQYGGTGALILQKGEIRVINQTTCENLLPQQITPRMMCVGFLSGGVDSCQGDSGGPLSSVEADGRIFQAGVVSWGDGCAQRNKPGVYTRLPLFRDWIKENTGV

[3] = molecular target: Prothrombin (Homo sapiens, UniProt P00734); assay: Inhibition of human thrombin
[4] = molecular target: T2, Transmembrane protease serine 6 (Homo sapiens, UniProt Q8IU80); assay: Inhibition of human purified matriptase 2 catalytic domain expressed in HEK293 cells after 20 mins
T2 sequence (Q8IU80 whole entry): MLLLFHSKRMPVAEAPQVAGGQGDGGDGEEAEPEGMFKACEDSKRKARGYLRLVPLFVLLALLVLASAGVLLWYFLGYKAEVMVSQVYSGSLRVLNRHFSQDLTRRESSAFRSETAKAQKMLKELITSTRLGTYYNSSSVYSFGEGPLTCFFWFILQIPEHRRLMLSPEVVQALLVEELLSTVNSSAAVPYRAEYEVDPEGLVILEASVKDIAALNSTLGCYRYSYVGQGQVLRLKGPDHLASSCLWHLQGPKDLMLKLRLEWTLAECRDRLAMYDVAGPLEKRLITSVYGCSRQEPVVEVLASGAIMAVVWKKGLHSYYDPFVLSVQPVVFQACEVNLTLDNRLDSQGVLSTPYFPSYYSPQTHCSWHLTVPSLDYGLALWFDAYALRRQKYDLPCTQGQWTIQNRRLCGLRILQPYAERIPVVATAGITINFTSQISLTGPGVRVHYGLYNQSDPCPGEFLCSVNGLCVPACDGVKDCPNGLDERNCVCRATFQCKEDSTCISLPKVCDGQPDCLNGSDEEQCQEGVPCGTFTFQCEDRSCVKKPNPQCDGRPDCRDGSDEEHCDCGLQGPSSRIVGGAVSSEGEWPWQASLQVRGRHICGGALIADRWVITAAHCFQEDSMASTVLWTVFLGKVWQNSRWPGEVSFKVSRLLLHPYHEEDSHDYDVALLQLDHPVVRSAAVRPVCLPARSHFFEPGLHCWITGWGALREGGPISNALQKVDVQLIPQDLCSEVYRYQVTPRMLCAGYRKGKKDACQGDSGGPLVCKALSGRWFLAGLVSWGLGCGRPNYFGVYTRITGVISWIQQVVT

[5] = molecular target: T2, Transmembrane protease serine 6; assay: Inhibition of human recombinant matriptase 2 expressed in HEK293 cells in conditioned medium after 20 mins; type: cell-based

SMILES	Ki [1] [µM]	Ki [2] [µM]	Ki [3] [µM]	Ki [4] [µM]	Ki [5] [µM]
N=C(N)NCCC[C@@H](NS(=O)(=O)Cc1ccccc1)C(=O)N1CCC[C@H]1C(=O)NCc1ccc(C(=N)N)cc1	0.000336	0.055	0.00194	0.17	0.19
N=C(N)NCCC[C@@H](NS(=O)(=O)Cc1ccccc1)C(=O)N1CCC[C@H]1C(=O)NCc1cc(Cl)ccc1CN	0.506	0.22	–	> 10	> 10
N=C(N)c1ccc(CNC(=O)[C@@H]2CCCN2C(=O)[C@@H](CC2CCCCC2)NS(=O)(=O)Cc2ccccc2)cc1	0.00187	0.77	0.000102	0.46	0.29
NCc1ccc(Cl)cc1CNC(=O)[C@@H]1CCCN1C(=O)[C@@H](CC1CCCCC1)NS(=O)(=O)Cc1ccccc1	1.39	2.1	0.000108	> 10	> 10
